Data: article PMC5618791, “Double quick, double click reversible peptide “stapling”” (Chemical Science, 2017)
Starred links: 1 amine or outer side, 2 acyl side, 3 side chain; linkers in the order of their positions; H or OH if unused. Positions of bridges follow the written chain, without caps; N, C: chain ends. Non-standard residues stand in square brackets, D forms with d. Residues, ends and D or L forms follow the SMILES beside them. Maleimide(3,4-diyl) = O=C1NC(=O)C([*:2])=C1[*:1]; Nle = CCCC[C@H](N)C(=O)O

Legend:
[1] = target: BODIPY-BAK/Bcl-xL interaction (Homo sapiens, UniProt Q07817); experiment: Fluorescence anisotropy competition assay, BODIPY-BAK/Bcl-xL; type: binding; conditions: 25 nM tracer, 150 nM protein, 50 mM phosphate, 200 mM NaCl, 0.02 mg mL-1 BSA, pH 7.50; 1 h, room temperature; triplicate; read-out: IC50, inhibition of the BODIPY-BAK/Bcl-xL interaction
BODIPY-BAK/Bcl-xL interaction, sequence (Q07817 whole entry): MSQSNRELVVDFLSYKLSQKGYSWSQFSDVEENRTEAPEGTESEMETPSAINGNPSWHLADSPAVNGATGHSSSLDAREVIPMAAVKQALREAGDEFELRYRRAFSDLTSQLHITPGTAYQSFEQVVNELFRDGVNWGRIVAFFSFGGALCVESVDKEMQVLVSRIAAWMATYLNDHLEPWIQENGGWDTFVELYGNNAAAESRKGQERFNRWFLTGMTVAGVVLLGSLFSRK
Experimental: (§1) Fluorescence anisotropy assays were performed in 384-well black plates (Greiner Bio-one).
(§2) Each experiment was run in triplicate and fluorescence anisotropy was measured using a Perkin Elmer EnVisionTM 2103 MultiLabel plate reader. […]
- 50 mM phosphate buffer at pH 7.5, containing 200 mM NaCl and 0.02 mg.mL-1 bovine serum albumin (BSA) for BODIPY-BAK/Bcl-xL. […]
(§3) 20 µL of assay buffer were first added to each well.
(§4) For each competition assay, 20 µL of a solution of α-helix mimetics (1 mM in 90:10 (v/v) assay buffer: DMSO) were added to the first column. The solution was well mixed and 20 µL were taken out and added to the next column and so on. This operation consisted on serial dilution of the peptides across the plate (24-points, 1/2 serial dilution). The tracer peptide and the targeted protein were added to each well to give a final concentration of 25 nM and […]
For each direct titration assay, 20 µL of a solution of the protein (60 µM in assay buffer) were added to the first column. […]
(§5) For control wells in both assays, the tracer peptide was replaced with an identical volume of assay buffer. […] Plates were read after 1 h of incubation […]
(§6) The average anisotropy (across three experimental replicates) and the standard deviation of these values were then calculated and fit to a sigmoidal logistic model (Equation 3) using OriginPro 9.0 which provided the IC50 and error values.

[2] = target: FITC-BID/Mcl-1 interaction (Homo sapiens, UniProt Q07820); experiment: Fluorescence anisotropy competition assay, FITC-BID/Mcl-1; type: binding; conditions: 25 nM tracer, 150 nM protein, 50 mM Tris, 150 mM NaCl, 0.61% Triton X-100, pH 7.40; 1 h, room temperature; triplicate; read-out: IC50, inhibition of the FITC-BID/Mcl-1 interaction
FITC-BID/Mcl-1 interaction, sequence (Q07820 172-327 limits assumed): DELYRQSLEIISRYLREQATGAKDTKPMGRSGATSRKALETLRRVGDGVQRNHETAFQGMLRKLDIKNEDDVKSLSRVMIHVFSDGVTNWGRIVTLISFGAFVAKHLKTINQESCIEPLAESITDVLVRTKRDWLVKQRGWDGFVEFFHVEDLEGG
Experimental: fluorescein-labelled FITC-Ahx-BID (80-102) was synthesised and purified as stated […]
as §1, §2
- 50 mM phosphate buffer at pH 7.5, containing 200 mM NaCl and 0.05% of tween for […]
as §3, §4, §5, §6

[3] = Trypsin proteolysis followed by LC-MS; type: in vitro ADME; conditions: trypsin from bovine pancreas (isolated protease), pH 7.5, 1:10000 enzyme/substrate ratio, 50 mM phosphate buffer, 200 mM NaCl, pH 7.50, peptide 200 μM stock, 5% DMSO, LC-MS of intact peptide at 0, 5, 12, 21, 45, 90 min, read-out: t1/2, trypsin proteolysis
Experimental: Proteolysis studies on BID peptides
Trypsin, modified sequencing grade from bovine pancreas (lyophilized powder, MW = 24 kDa, ≥ 4 units/mg protein) was purchased from Sigma-Aldrich and used without further purification. BID peptides (200 µM stock in PBS buffer pH 7.50, 5% DMSO) were treated with Trypsin (0.02 µM stock solutions in PBS buffer pH 7.50) in a 1:10000 enzyme/substrate ratio.
The degradation was followed with LCMS (Aeris Peptide LC-Column XB-C18 2.6 µm, 100x2.1 mm, injection volume: 5 µL, acetonitrile/water (0.1% formic acid) 5-95% gradient).
The degradation pattern of each peptide (figure A) could be identified by mass spectrometry.
The cleavage sites are marked by dotted lines and the subsequent fragment masses, shown in squares, are allocated to a number which is reported on the LCMS graph (graph B).
The LCMS traces (graph B) of each peptide incubated with Trypsin were recorded at the following successive times: 0, 5, 12, 21, 45 and 90 min.
(graph C) was integrated to extract kinetic values.

[4] = Circular dichroism, % helicity; type: physicochemical; conditions: CD, peptide 10-20 μM, calculated from MRE at 222 nm
Experimental: Samples were prepared in two different solvent systems (30% TFE:H2O, 30% CH3CN:water) to concentrations between 10 - 20 μM (Figure S 23). Considering the high number of hydrophobic residues in BID and S peptides, organic co-solvents were used to ensure good solubility and avoid aggregation at concentrations high enough for CD analyses. DMSO stocks of peptides were not used for CD due to its high absorbance below 230 nm.
The raw circular dichroism data obtained for the peptides was processed by the subtraction of the solvent signal and converted into a mean residue ellipticity:
Where = molar ellipticity[θ]MRE per residue, θ = circular dichroism at a given wavelength, c = molar concentration, l = path length in cm, R = number of residues in the peptide sequence.
Calculation of % helicity was performed by the following equation:[4]
Where: θH = Theoretical MRE for 100% helicity at 222 nm, θ0 = Theoretical MRE for 100% helicity at 222 nm at 0 °C = –44000, (∂θ/∂T) = temperature dependence of infinite helix = +250, T = temperature in °C, x = 3, Nr = number of residues in the peptide.
In both solvent systems, it is noteworthy that STA-peptides are more helical than RED-peptides or WT-peptides; with the exception of constrained S-Cys-peptides. The use of TFE as co-solvent in water enhances the α-helicity of both series of peptides compared to the use of acetonitrile in water. […]
thus bioactive) conformation. The S peptides show a low helix propensity which is consistent […]
Figure S 23: CD spectra A. and B. in 30% TFE:H 2O; C. and D. in 30% CH3CN:H 2O.
Table 1: Percentage of helicity in the three solvent systems […]
(also on this page, place not known: Molar residue ellipticity (deg.cm 2 .dmol -1 ) Molar residue ellipticity (deg.cm 2 .dmol -1 ) Molar residue ellipticity (deg.cm 2 .dmol -1 ) Molar residue ellipticity (deg.cm 2 .dmol -1 ) TFE:H2O; CH3CN:H2O.)

CCCC[C@H](NC(=O)[C@H](CS)NC(=O)[C@H](CC(=O)O)NC(=O)CNC(=O)[C@@H](NC(=O)[C@H](CS)NC(=O)[C@H](C)NC(=O)[C@H](CC(C)C)NC(=O)[C@H](Cc1c[nH]cn1)NC(=O)[C@H](CCCNC(=N)N)NC(=O)[C@H](C)NC(=O)[C@@H](NC(=O)[C@H](CC(N)=O)NC(=O)[C@H](CCCNC(=N)N)NC(=O)[C@@H](NC(=O)[C@@H](NC(=O)[C@H](CC(=O)O)NC(=O)[C@H](CCC(=O)O)NC(C)=O)[C@@H](C)CC)[C@@H](C)CC)[C@@H](C)CC)C(C)C)C(=O)N[C@@H](CC(=O)O)C(=O)N[C@@H](CCCNC(=N)N)C(=O)N[C@@H](CO)C(=O)N[C@H](C(=O)N[C@@H](Cc1c[nH]c2ccccc12)C(N)=O)[C@@H](C)CC [1a] (Ac-EDIIRNIARHLACVGDC[Nle]DRSIW-NH2)
IC50 [1]: 70.9 µM | IC50 [2]: 23.4 µM | half-life [3]: 22 min

CCCC[C@H](NC(=O)[C@H](CCS)NC(=O)[C@H](CC(=O)O)NC(=O)CNC(=O)[C@@H](NC(=O)[C@H](CCS)NC(=O)[C@H](C)NC(=O)[C@H](CC(C)C)NC(=O)[C@H](Cc1c[nH]cn1)NC(=O)[C@H](CCCNC(=N)N)NC(=O)[C@H](C)NC(=O)[C@@H](NC(=O)[C@H](CC(N)=O)NC(=O)[C@H](CCCNC(=N)N)NC(=O)[C@@H](NC(=O)[C@@H](NC(=O)[C@H](CC(=O)O)NC(=O)[C@H](CCC(=O)O)NC(C)=O)[C@@H](C)CC)[C@@H](C)CC)[C@@H](C)CC)C(C)C)C(=O)N[C@@H](CC(=O)O)C(=O)N[C@@H](CCCNC(=N)N)C(=O)N[C@@H](CO)C(=O)N[C@H](C(=O)N[C@@H](Cc1c[nH]c2ccccc12)C(N)=O)[C@@H](C)CC [1b]
Percentage of helicity, 30% TFE:H2O [4]: 23% | half-life [3]: 32 min

CCCC[C@H](NC(=O)[C@@H]1CSC2=C(SC[C@H](NC(=O)[C@H](C)NC(=O)[C@H](CC(C)C)NC(=O)[C@H](Cc3c[nH]cn3)NC(=O)[C@H](CCCNC(=N)N)NC(=O)[C@H](C)NC(=O)[C@@H](NC(=O)[C@H](CC(N)=O)NC(=O)[C@H](CCCNC(=N)N)NC(=O)[C@@H](NC(=O)[C@@H](NC(=O)[C@H](CC(=O)O)NC(=O)[C@H](CCC(=O)O)NC(C)=O)[C@@H](C)CC)[C@@H](C)CC)[C@@H](C)CC)C(=O)N[C@@H](C(C)C)C(=O)NCC(=O)N[C@@H](CC(=O)O)C(=O)N1)C(=O)NC2=O)C(=O)N[C@@H](CC(=O)O)C(=O)N[C@@H](CCCNC(=N)N)C(=O)N[C@@H](CO)C(=O)N[C@H](C(=O)N[C@@H](Cc1c[nH]c2ccccc12)C(N)=O)[C@@H](C)CC [3a] (Ac-EDIIRNIARHLACVGDC[Nle]DRSIW-NH2; linker 13-17 via Maleimide(3,4-diyl))
IC50 [1]: 19.4 µM | IC50 [2]: 16.6 µM | half-life [3]: 75 min

CCCC[C@H](NC(=O)[C@@H]1CCSC2=C(SCC[C@H](NC(=O)[C@H](C)NC(=O)[C@H](CC(C)C)NC(=O)[C@H](Cc3c[nH]cn3)NC(=O)[C@H](CCCNC(=N)N)NC(=O)[C@H](C)NC(=O)[C@@H](NC(=O)[C@H](CC(N)=O)NC(=O)[C@H](CCCNC(=N)N)NC(=O)[C@@H](NC(=O)[C@@H](NC(=O)[C@H](CC(=O)O)NC(=O)[C@H](CCC(=O)O)NC(C)=O)[C@@H](C)CC)[C@@H](C)CC)[C@@H](C)CC)C(=O)N[C@@H](C(C)C)C(=O)NCC(=O)N[C@@H](CC(=O)O)C(=O)N1)C(=O)NC2=O)C(=O)N[C@@H](CC(=O)O)C(=O)N[C@@H](CCCNC(=N)N)C(=O)N[C@@H](CO)C(=O)N[C@H](C(=O)N[C@@H](Cc1c[nH]c2ccccc12)C(N)=O)[C@@H](C)CC [3b]
Percentage of helicity, 30% CH3CN:H2O ([4]; 30% CH3CN:H2O): 43% | Percentage of helicity, 30% TFE:H2O [4]: 47% | half-life [3]: 84 min
